Measurements reported in ChEMBL document CHEMBL1143708, “5-alkynyl analogs of arabinouridine and 2'-deoxyuridine: cytostatic activity against herpes simplex virus and varicella-zoster thymidine kinase gene-transfected cells” (J Med Chem, 2007).
In brackets after ≈: the same amount, converted by molar mass. Activity calls are given as the source filed them. The calls are words filed in the database; no cut-off is given here.

How the values were obtained:
FM3A [1] = assay: Inhibition of proliferation of thymidine kinase deficient mouse FM3A cells; type: functional, cell-based
FM3A [2] = assay: Inhibition of proliferation of thymidine kinase deficient mouse FM3A cells expressing HSV1 thymidine kinase; type: functional, cell-based
FM3A [3] = assay: Inhibition of proliferation of thymidine kinase deficient mouse FM3A cells expressing HSV2 thymidine kinase; type: functional, cell-based
OST = assay: Inhibition of proliferation of thymidine kinase deficient OST cells; type: functional, cell-based; conditions: Homo sapiens
[4] = Inhibition of proliferation of VZV thymidine kinase expressing OSTtk-/VZVtk+ -a cells; type: functional; conditions: Homo sapiens
[5] = Inhibition of proliferation of VZV thymidine kinase expressing OSTtk-/VZVtk+ -b cells; type: functional; conditions: Homo sapiens
[6] = test system: Vesicular stomatitis virus; assay: Antiviral activity against VSV in HeLa cells at 40 to >400 ug/mL; type: functional, organism-based
Coxsackievirus B4 [7] = assay: Antiviral activity against Coxsackie virus B4 in HeLa cells at 40 to >400 ug/mL; type: functional, organism-based
[8] = test system: Respiratory syncytial virus; assay: Antiviral activity against Respiratory syncytial virus in HeLa cells at 40 to >400 ug/mL; type: functional, organism-based
Human respirovirus 3 = assay: Antiviral activity against Parainfluenza 3 virus in vero cells assessed as reduction of virus-induced cytopathicity at 20 to >400 ug/mL; type: functional, organism-based
[9] = test system: Mammalian orthoreovirus 1; assay: Antiviral activity against Reovirus1 in vero cells assessed as reduction of virus-induced cytopathicity at 40 to >400 ug/mL; type: functional, organism-based
Sindbis virus = assay: Antiviral activity against Sindbis virus in vero cells assessed as reduction of virus-induced cytopathicity at 40 to >400 ug/mL; type: functional, organism-based
Punta Toro virus [10] = assay: Antiviral activity against Punta Toro virus in vero cells assessed as reduction of virus-induced cytopathicity at 20 to >400 ug/mL; type: functional, organism-based
Human alphaherpesvirus 3 [11] = assay: Antiviral activity against thymidine kinase deficient VZV YS/R in HEL cells assessed as reduction of virus plaque formation; type: functional, organism-based; conditions: Human alphaherpesvirus 3, YS/R
[12] = Cytotoxicity against E6SM cells assessed as alteration in cell morphology; type: cell-based; conditions: human
Human alphaherpesvirus 1 [13] = assay: Antiviral activity against HSV1 KOS in E6SM cells assessed as reduction of virus-induced cytopathogenicity; type: functional, organism-based; conditions: Human alphaherpesvirus 1, KOS
Human alphaherpesvirus 2 = assay: Antiviral activity against HSV2 G in E6SM cells assessed as reduction of virus-induced cytopathogenicity; type: functional, organism-based; conditions: Human alphaherpesvirus 2, G
Human alphaherpesvirus 1 [14] = assay: Antiviral activity against thymidine kinase-deficient HSV1 B2006 in E6SM cells assessed as reduction of virus-induced cytopathogenicity; type: functional, organism-based; conditions: Human alphaherpesvirus 1, B2006, E6SM
Human alphaherpesvirus 1 [15] = assay: Antiviral activity against thymidine kinase deficient HSV1 VMW1837 in E6SM cells assessed as reduction of virus-induced cytopathogenicity; type: functional, organism-based; conditions: Human alphaherpesvirus 1, VMW1837, E6SM
Human betaherpesvirus 5 [16] = assay: Antiviral activity against HCMV AD169 in HEL cells assessed as reduction of virus plaque formation; type: functional, organism-based; conditions: Human betaherpesvirus 5, AD169, HEL
Human betaherpesvirus 5 [17] = assay: Antiviral activity against HCMV Davis in HEL cells assessed as reduction of virus plaque formation; type: functional, organism-based; conditions: Human betaherpesvirus 5, Davis
[18] = Cytotoxicity against HEL cells assessed as alteration in cell morphology; type: cell-based; conditions: human
[19] = Cytotoxicity against HEL cells; type: cell-based; conditions: human
Human alphaherpesvirus 3 [20] = assay: Antiviral activity against TK+ VZV OKA in HEL cells assessed as reduction of virus plaque formation; type: functional, organism-based; conditions: Human alphaherpesvirus 3, OKA
Human alphaherpesvirus 3 [21] = assay: Antiviral activity against TK+ VZV YS in HEL cells assessed as reduction of virus plaque formation; type: functional, organism-based; conditions: Human alphaherpesvirus 3, YS
Human alphaherpesvirus 3 [22] = assay: Antiviral activity against thymidine kinase deficient VZV 07/1 in HEL cells assessed as reduction of virus plaque formation; type: functional, organism-based; conditions: Human alphaherpesvirus 3, 07/1, HEL
[23] = Inhibition of proliferation of mouse FM3A/O cells; type: functional, cell-based
Human alphaherpesvirus 3 [24] = assay: Antiviral activity against thymidine kinase deficient VZV YS in HEL cells assessed as reduction of virus plaque formation; type: functional, organism-based; conditions: Human alphaherpesvirus 3, YS
[25] = test system: Vesicular stomatitis virus; assay: Antiviral activity against VSV in HeLa cells; type: functional, organism-based
Coxsackievirus B4 [26] = assay: Antiviral activity against Coxsackie virus B4 in HeLa cells; type: functional, organism-based; conditions: Enterovirus B
[27] = test system: Respiratory syncytial virus; assay: Antiviral activity against Respiratory syncytial virus in HeLa cells; type: functional, organism-based; conditions: human respiratory syncytial virus
[28] = test system: Mammalian orthoreovirus 1; assay: Antiviral activity against Reovirus1 in vero cells; type: functional, organism-based; conditions: Mammalian orthoreovirus 1, Vero
Punta Toro virus [29] = assay: Antiviral activity against Punta Toro virus in vero cells; type: functional, organism-based

Structure (SMILES)	IC50 (FM3A [1]) [µM]	IC50 (FM3A [2]) [µM]	IC50 (FM3A [3]) [µM]	IC50 (OST) [µM]	IC50 [4] [µM]	IC50 [5] [µM]	Activity [6]	Activity (Coxsackievirus B4 [7])	Activity [8]	Activity (Human respirovirus 3)	Activity [9]	Activity (Sindbis virus)	Activity (Punta Toro virus [10])	MCC [12] [µg/mL]	EC50 (Human alphaherpesvirus 1 [13]) [µg/mL]	EC50 (Human alphaherpesvirus 2) [µg/mL]	EC50 (Human alphaherpesvirus 1 [14]) [µg/mL]	EC50 (Human alphaherpesvirus 1 [15]) [µg/mL]	EC50 (Human betaherpesvirus 5 [16]) [µM]	EC50 (Human betaherpesvirus 5 [17]) [µM]	further results
C[Si](C)(C)C#Cc1cn([C@@H]2O[C@H](CO)[C@@H](O)[C@@H]2O)c(=O)[nH]c1=O	≥ 250	3.8	0.29	≥ 176	0.75	1.9	inactive	inactive	inactive	inactive	inactive	inactive	inactive	400	0.7 (≈ 2.06 µM)	2 (≈ 5.88 µM)	150 (≈ 441 µM)	150 (≈ 441 µM)	> 50	> 50	EC50 (Human alphaherpesvirus 3 [11]): > 50 µM; MCC [18]: 200 µM; CC50 [19]: 127 µM; EC50 (Human alphaherpesvirus 3 [20]): 0.48 µM; EC50 (Human alphaherpesvirus 3 [21]): 0.33 µM; EC50 (Human alphaherpesvirus 3 [22]): > 50 µM; IC50 [23]: ≥ 250 µM
CC(=O)OC[C@H]1O[C@@H](n2cc(C#CI)c(=O)[nH]c2=O)[C@@H](OC(C)=O)[C@@H]1OC(C)=O	20	5.4	0.96	5.4	3.6	3.9	inactive	inactive	inactive	inactive	inactive	inactive	inactive	40	20 (≈ 38.4 µM)	7 (≈ 13.5 µM)	> 10	> 10	> 20	> 20	MCC [18]: 50 µM; CC50 [19]: 20 µM; EC50 (Human alphaherpesvirus 3 [20]): 8.5 µM; EC50 (Human alphaherpesvirus 3 [21]): 3.1 µM; EC50 (Human alphaherpesvirus 3 [22]): > 20 µM; EC50 (Human alphaherpesvirus 3 [24]): > 20 µM; IC50 [23]: 18 µM
O=c1[nH]c(=O)n([C@@H]2O[C@H](CO)[C@@H](O)C2O)cc1/C=C/Br (single isomer, unassigned) [SORIVUDINE]				≥ 250	0.15	0.2															
C[Si](C)(C)C#Cc1cn([C@H]2C[C@H](O)[C@@H](CO)O2)c(=O)[nH]c1=O	≥ 250	0.16	0.48	23	0.041	0.2	inactive	inactive	inactive	inactive	inactive	inactive	inactive	> 400	2 (≈ 6.17 µM)	7 (≈ 21.6 µM)	4 (≈ 12.3 µM)	7 (≈ 21.6 µM)	1.2	0.75	MCC [18]: 200 µM; CC50 [19]: 0.18 µM; EC50 (Human alphaherpesvirus 3 [20]): 0.26 µM; EC50 (Human alphaherpesvirus 3 [21]): 0.15 µM; EC50 (Human alphaherpesvirus 3 [22]): 0.69 µM; EC50 (Human alphaherpesvirus 3 [24]): 0.9 µM; IC50 [23]: 0.23 µM
NC(=O)c1ncn([C@@H]2O[C@H](CO)[C@@H](O)[C@H]2O)n1 [RIBAVIRIN]														400	70 (≈ 287 µM)	150 (≈ 614 µM)	20 (≈ 81.9 µM)	70 (≈ 287 µM)			IC50 [25]: 20 µg/mL (≈ 81.9 µM); IC50 (Coxsackievirus B4 [26]): 20 µg/mL (≈ 81.9 µM); IC50 [27]: 2 µg/mL (≈ 8.19 µM); IC50 [28]: 0.7 µg/mL (≈ 2.87 µM); IC50 (Punta Toro virus [29]): 20 µg/mL (≈ 81.9 µM)
O=c1[nH]c(=O)n([C@H]2C[C@H](O)[C@@H](CO)O2)cc1/C=C/Br [BRIVUDINE]				≥ 250	0.6	0.35								≥ 400	0.02 (≈ 0.06 µM)	150 (≈ 450 µM)	40 (≈ 120 µM)	40 (≈ 120 µM)			
